# Assay results: patent EP1002054B1, “PROCESS FOR THE PRODUCTION OF VIRUS IN CELL CULTURES” (priority 1998, dated 1999)
# *1 amine or outer side, *2 acyl side, *3 side chain or, on linkers, in order; H or OH if unused. Where a SMILES comes first, the peptide text is derived from it. Bridges are numbered along the chain shown (N, C = ends). Roman numbers before positions name the chains, in order. [ ]: non-standard residue; d: D form. Actinocin(9to1) = Cc1c2oc3c(C)ccc(C(=O)[*:1])c3nc-2c(C(=O)[*:2])c(N)c1=O; NMeV = CN[C@H](C(=O)O)C(C)C; Sar = CNCC(=O)O
# How the values were obtained:
# interferon response [1] = system: interferon response
# interferon response [2] = settings: pretreatment of the cells; cited from earlier work
smiles,measurement,setting,value
"Cc1c2oc3c(C)ccc(C(=O)N[C@@H]4C(=O)N[C@H](C(C)C)C(=O)N5CCC[C@H]5C(=O)N(C)CC(=O)N(C)[C@@H](C(C)C)C(=O)O[C@@H]4C)c3nc-2c(C(=O)N[C@@H]2C(=O)N[C@H](C(C)C)C(=O)N3CCC[C@H]3C(=O)N(C)CC(=O)N(C)[C@@H](C(C)C)C(=O)O[C@@H]2C)c(N)c1=O [actinomycin D] (I: T[dV]P[Sar][NMeV] / II: T[dV]P[Sar][NMeV]; ester I:1-I:C, II:1-II:C; linker I:N-II:N via Actinocin(9to1))",effect on virus yield relative to control cultures,interferon response [1],substantial increase in virus yield
same,toxicity to the cells,interferon response [1],relatively toxic to the cells
same,effect on interferon response,interferon response [2],blocks the interferon response
